Laboratory results from patent US5457103A, “3',5'-di-tert.-butyl-4'-hydroxy flavones” (Adir et Compagnie, priority 1992, dated 1995).

Assays:
[1] = test system: Human LDLs; assay: Modification of LDLs by copper sulphate (inhibition of LDL oxidation, MDA production); type: biochemical; conditions: 24 hours, copper sulfate 5 μM, compounds 0.1 μM to 100 μM; read-out: IC50 (reduction by 50% of the production of MDA), oxidation of LDLs by copper sulfate
Experimental: (§1) This activity was compared with that of probucol and vitamin E taken as reference products.
Modification of LDLs by copper sulphate
Human LDLs are incubated for 24 hours in the presence of copper sulfate (5 μM) and in the absence or in the presence of the compounds tested (from 0.1 μM to 100 μM).
After incubation, the peroxidation of the LDLs is evaluated by electrophoresis on agar gel and by the formation of one of the products of lipid peroxidation: malonic dialdehyde (MDA) (cf. Parthasarathy S. et al., J. Clin. Invest., 77, (1986), 641-644).
The activity of the compounds tested is evaluated by calculating the concentrations that reduce by 50% (IC50) the production of MDA compared with the control experiments in the absence of a product of the invention.

[2] = test system: Human LDLs; assay: Modification of LDLs by endothelial cells of the rabbit aorta (inhibition of LDL oxidation, MDA production); type: cell-based; conditions: 24 hours, endothelial cells of rabbit aorta (RECL B4 line), compounds 0.1 to 100 μM; read-out: IC50 (reduction by 50% of the production of MDA), oxidation of LDLs by endothelial cells
Experimental: as §1
Modification of LDLs by endothelial cells
Human LDLs are incubated for 24 hours in the presence of endothelial cells of the rabbit aorta (RECL B4 line, provenance: Pr. Steinberg, USA) and in the absence or in the presence of the tested compounds (from 0.1 to 100 μM).
After incubation, the peroxidation of the LDLs is evaluated as in Example 21 by electrophoresis on agar gel and by the formation of MDA (cf. Steinbrecher, U.P. et al., Proc. Nat. Acad. Sci. USA, 81, (1984), 3883-3887). The activity of the compounds tested is evaluated by calculating the concentrations that reduce by 50% (IC50) the production of MDA compared with the control experiments in the absence of a product of the invention.
The results of this test of inhibition of oxidation of LDLs by endothelial cells are grouped below: […]

[3] = test system: coronary arteries caused to contract by F2α prostaglandin (PGF2α); assay: Vasorelaxant activity on isolated coronary artery rings contracted by PGF2α; parameters: species or system Yucatan miniature pigs; conditions: for activity at 0.1 µM / activity at 0.3 µM / activity at 1 µM / activity at 3 µM / activity at 10 µM: 0.25 h, PGF2α 4 μM, indomethacin 10 μM, cumulative concentrations every 15 minutes, read-out: tension as a percentage of the maximum tension observed under PGF2α
Experimental: Study of the compounds of the invention on isolated vessels
Yucatan miniature pigs (Ch. River) are anaesthetised with pentobarbitone. The circumflex branch of the left coronary artery is removed and proximal rings of approximately 4 mm are prepared. The organs are placed in a temperature-controlled 20 ml bath containing a physiological solution having the composition:
maintained at 37° C., pH =7.4 and with 95% oxygen and 5% carbon dioxide. The initial tension is established progressively up to 6 g. After a stabilisation period of 60 minutes, the rings are caused to contract by PGF2a (4 μM) in the presence of indomethacin (10 μM). As soon as this concentration has stabilised, the products of the present invention are tested by adding cumulative concentrations of the product of Example 17 and probucol every 15 minutes in comparison with the control experiments with the solvent used (dimethyl sulfoxide:DMSO).

IC50 [1] [µM]	IC50 [2] [µM]	Molecule	also measured
3	0.5	CCOC(=O)C(C)(C)Oc1ccc2c(=O)cc(-c3cc(C(C)(C)C)c(O)c(C(C)(C)C)c3)oc2c1 [Example 15, Ethyl 2-17-(3',5'-di-tert.-butyl-4'-hydroxy)flavonyl]oxy-2,2-dimethyl acetate]	
3	4	CC(C)(Sc1cc(C(C)(C)C)c(O)c(C(C)(C)C)c1)Sc1cc(C(C)(C)C)c(O)c(C(C)(C)C)c1 [PROBUCOL, reference compound]	activity at 0.1 µM ([3]; Sus scrofa): 93.3%; activity at 0.3 µM ([3]; Sus scrofa): 85.6%; activity at 1 µM ([3]; Sus scrofa): 77.3%; activity at 3 µM ([3]; Sus scrofa): 66%; activity at 10 µM ([3]; Sus scrofa): 49.2%
3	2.5	CC(C)(C)c1cc(-c2cc(=O)c3ccccc3o2)cc(C(C)(C)C)c1O [Example 14, 3',5'-di-tert-butyl-4'-hydroxyflavone]	
0.8		CC(C)(C)c1cc(-c2cc(=O)c3ccc(OCCN4CCOCC4)cc3o2)cc(C(C)(C)C)c1O [Example 3, 3', 5'-di-tert.-butyl-4'-hydroxy-.7-(4"-morpholinylethoxy)flavone]	
7		CC(C)(C)c1cc(-c2cc(=O)c3ccc(OCc4ccc(Cl)cc4)cc3o2)cc(C(C)(C)C)c1O [Example 4, 7-p-chlorobenzyloxy-3',5'-di-tert.-butyl-4'-hydroxyflavone]	
30	0.7	CC(C)(C)c1cc(C(=O)Oc2ccc3c(=O)cc(-c4cc(C(C)(C)C)c(O)c(C(C)(C)C)c4)oc3c2)cc(C(C)(C)C)c1O [Example 20, 3',5'-di-tert-butyl-4'-hydroxy-7-(3",5"-di-tert-butyl-4"-hydroxy)benzoyloxyflavone]	
1		CC(C)(C)c1cc(-c2cc(=O)c3ccc(O)cc3o2)cc(C(C)(C)C)c1O [Example 1, 3',5'-di-tert-butyl-7,4'-dihydroxyflavone]	
3		CC(C)(C)c1cc(-c2cc(=O)c3ccc(OCC(=O)N4CCN(Cc5ccccc5)CC4)cc3o2)cc(C(C)(C)C)c1O [Example 6, 3',5'-di-tert.-butyl-4'-hydroxy-7-[2"-(N-benzylpiperazino)-2"-oxo-ethoxy]flavone]	
> 100	4	VITAMIN E [reference compound]	
5		CCCCCCOc1ccc2c(=O)cc(-c3cc(C(C)(C)C)c(O)c(C(C)(C)C)c3)oc2c1 [Example 2, 3',5'-di-tert.-butyl-7-n-hexyloxy-4'-hydroxyflavone]	
3	0.8	CCOC(=O)COc1ccc2c(=O)cc(-c3cc(C(C)(C)C)c(O)c(C(C)(C)C)c3)oc2c1 [Example 16, Ethyl 2-[7-(3',5'-di-tert.-butyl-4'-hydroxy)flavonyl]oxyacetate]	activity at 0.1 µM ([3]; Sus scrofa): 95.4%; activity at 0.3 µM ([3]; Sus scrofa): 85%; activity at 1 µM ([3]; Sus scrofa): 74.1%; activity at 3 µM ([3]; Sus scrofa): 37.3%; activity at 10 µM ([3]; Sus scrofa): 20.2%; IC50 ([3]; Sus scrofa, coronary artery rings contracted by PGF2α, read-out: IC50 of vascular relaxation): ~2.6 µM; vascular relaxation (in words) ([3]; coronary artery rings contracted by PGF2α): concentration-dependent vascular relaxation
3		CCN(CC)C(=O)COc1ccc2c(=O)cc(-c3cc(C(C)(C)C)c(O)c(C(C)(C)C)c3)oc2c1 [Example 7, 3',5'-di-tert-butyl-4'-hydroxy-7-(N,N-diethylacetamidoxy) flavone]	
3	0.5	CC(C)(C)c1cc(-c2cc(=O)c3ccc(OCC(=O)O)cc3o2)cc(C(C)(C)C)c1O [Example 17, 2-[7-(3',5'-di-tert.-butyl-4'-hydroxy)flavonyl]oxyacetic acid]	
3		CC(C)(C)c1cc(-c2cc(=O)c3ccc(OCC(=O)N4CCCCC4)cc3o2)cc(C(C)(C)C)c1O [Example 5, 3',5'-di-tert-butyl-4'-hydroxy-7-(2"-piperidino-2"-oxoethoxy)flavone]	
5		CC(C)(C)c1cc(-c2cc(=O)c3ccc(OCC(=O)O)cc3o2)cc(C(C)(C)C)c1O [Example 18]	
